Measurements reported in patent US10829473B2, “Modulators of the cystic fibrosis transmembrane conductance regulator protein and methods of use” (AbbVie Overseas S.Á.R.L., priority 2017, dated 2020).
pEC50: −log10 of the molar value. Like-named read-outs stand apart in the source and are kept apart here.

Target: T1, F508delCFTR (Homo sapiens, UniProt P13569, DEL508-508)
T1 construct: expressed in transfected cells; host or cells: CFBE41o- human lung derived epithelial cells (CFBE41o-F508delCFTR-HRP), doxycycline-inducible
Test: Cell Surface Expression-Horse Radish Peroxidase (CSE-HRP) Assay;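 for EC50 (with co-corrector): co-corrector chromenyl benzoic acid corrector at 2 or 3 µM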
Type: cell-based
Conditions: for Maximum % activity (with co-corrector) / Emax: maximum at any tested concentration; for Emax: read-out: Maximum % activity (without co-corrector)
Procedure: A cellular assay for measuring the F508delCFTR cell surface expression after correction with test compounds either without or with a co-corrector (2 μM of 3-[(2R,4R)-4-({[1-(2,2-difluoro-1,3-benzodioxol-5-yl)cyclopropyl]carbonyl}amino)-7-methoxy-3,4-dihydro-2H-chromen-2-yl]benzoic acid), was developed in human lung derived epithelial cell line (CFBE4lo−) (Veit G et al, (2012) Mol Biol Cell. 23(21): 4188-4202). The development was achieved by expressing the F508delCFTR mutation along with a horseradish peroxidase (HRP) in the fourth exofacial loop, and then measuring the HRP activity using luminescence readout from these cells, CFBE410-F508delCFTR-HRP, that were incubated overnight with the test corrector compounds, either without or with the co-corrector. For this primary assay, the CFBE410-F508delCFTR-HRP cells were plated in 384-well plates (Greiner Bio-one; Cat 781080) at 4,000 cells/well along with 0.5 μg/mL doxycycline to induce the F508delCFTR-HRP expression and further incubated at 37° C., 5% CO2 for 68-72 hours. The test compounds were then added either without or with a co-corrector at the required concentrations and further incubated for 18-24 hours at 33° C. The highest concentration tested was 20 μM or 30 μM (GI-1 to GIII-36) with an 8-point concentration response curve using a 3-fold dilution in both the test compound without or with the co-corrector. Three replicate plates were run to determine one EC50. All plates contained negative controls (dimethyl sulfoxide, DMSO) and positive control (2 μM or 3 μM (GI-1 to GIII-36) of 3-[(2R,4R)-4-({[1-(2,2-difluoro-1,3-benzodioxol-5-yl)cyclopropyl]carbonyl}amino)-7-methoxy-3,4-dihydro-2H-chromen-2-yl]benzoic acid) as well as on-plate concentration response of the positive control. Post incubation, the plates were washed 5× times with Dulbecco's phosphate buffered saline (DPBS), followed by the addition of the HRP substrate, luminol (50 4), and measuring the HRP activity using luminescence readout on EnVision® Multilabel Plate Reader (Perkin Elmer; product number 2104-0010). The raw counts from the experiment were analyzed using Accelrys® Assay Explorer v3.3.
Z′ greater than 0.5 was used as passing quality control criteria for the plates.
The Z′ is defined as: 1−[3*SDPositve Control+3*SDNegative Control/Absolute(MeanPositive Control−MeanNegative Control)] wherein “SD” is standard deviation.
The % activity measured at each of the 8 test concentrations of the test compound added either without or with a co-corrector (2 μM or 3 μM (GI-1 to GIII-36) of 3-[(2R,4R)-4-({[1-(2,2-difluoro-1,3-benzodioxol-5-yl)cyclopropyl]carbonyl}amino)-7-methoxy-3,4-dihydro-2H-chromen-2-yl]benzoic acid) was normalized to the on-plate positive control using the following formulae: % activity (Test compound without co-corrector)=[(test compound without co-corrector response DMSO response)/(positive control response DMSO response)]*100 % activity (Test compound with co-corrector)=[(test compound with co-corrector response DMSO response)/(positive control response DMSO response)]*100
The maximum % activity achieved for the test compound either without or with a co-corrector at any tested concentration is presented in Table 6 along with the respective EC50's calculated using the following general sigmoidal curve with variable Hill slope equation (described as Model 42 in the Accelrys® Assay Explorer v3.3 software): y=(a−d)/(1+(x/c)b)+d
General sigmoidal curve with concentration, response, top, bottom, EC50 and Hill slope. This model describes a sigmoidal curve with an adjustable baseline, a. The equation can be used to fit curves where response is either increasing or decreasing with respect to the independent variable, “x”.
“x” is a concentration of drug under test.
“a” is the maximum response, and “d” is the minimum response
“c” is the inflection point (EGO for the curve. That is, “y” is halfway between the lower and upper asymptotes when x=c.
“b” is the slope-factor or Hill coefficient. […]

[1] = test compound alone, without co-corrector, read-out: EC50 (without co-corrector)
[2] = with co-corrector, read-out: EC50 (with co-corrector)
[3] = test compound with co-corrector
[4] = test compound with co-corrector, read-out: EC50 (with co-corrector)
[5] = test compound without co-corrector
[6] = test compound without co-corrector, read-out: EC50 (without co-corrector)

T1 sequence (P13569 with tags, fused parts or gaps DEL508-508): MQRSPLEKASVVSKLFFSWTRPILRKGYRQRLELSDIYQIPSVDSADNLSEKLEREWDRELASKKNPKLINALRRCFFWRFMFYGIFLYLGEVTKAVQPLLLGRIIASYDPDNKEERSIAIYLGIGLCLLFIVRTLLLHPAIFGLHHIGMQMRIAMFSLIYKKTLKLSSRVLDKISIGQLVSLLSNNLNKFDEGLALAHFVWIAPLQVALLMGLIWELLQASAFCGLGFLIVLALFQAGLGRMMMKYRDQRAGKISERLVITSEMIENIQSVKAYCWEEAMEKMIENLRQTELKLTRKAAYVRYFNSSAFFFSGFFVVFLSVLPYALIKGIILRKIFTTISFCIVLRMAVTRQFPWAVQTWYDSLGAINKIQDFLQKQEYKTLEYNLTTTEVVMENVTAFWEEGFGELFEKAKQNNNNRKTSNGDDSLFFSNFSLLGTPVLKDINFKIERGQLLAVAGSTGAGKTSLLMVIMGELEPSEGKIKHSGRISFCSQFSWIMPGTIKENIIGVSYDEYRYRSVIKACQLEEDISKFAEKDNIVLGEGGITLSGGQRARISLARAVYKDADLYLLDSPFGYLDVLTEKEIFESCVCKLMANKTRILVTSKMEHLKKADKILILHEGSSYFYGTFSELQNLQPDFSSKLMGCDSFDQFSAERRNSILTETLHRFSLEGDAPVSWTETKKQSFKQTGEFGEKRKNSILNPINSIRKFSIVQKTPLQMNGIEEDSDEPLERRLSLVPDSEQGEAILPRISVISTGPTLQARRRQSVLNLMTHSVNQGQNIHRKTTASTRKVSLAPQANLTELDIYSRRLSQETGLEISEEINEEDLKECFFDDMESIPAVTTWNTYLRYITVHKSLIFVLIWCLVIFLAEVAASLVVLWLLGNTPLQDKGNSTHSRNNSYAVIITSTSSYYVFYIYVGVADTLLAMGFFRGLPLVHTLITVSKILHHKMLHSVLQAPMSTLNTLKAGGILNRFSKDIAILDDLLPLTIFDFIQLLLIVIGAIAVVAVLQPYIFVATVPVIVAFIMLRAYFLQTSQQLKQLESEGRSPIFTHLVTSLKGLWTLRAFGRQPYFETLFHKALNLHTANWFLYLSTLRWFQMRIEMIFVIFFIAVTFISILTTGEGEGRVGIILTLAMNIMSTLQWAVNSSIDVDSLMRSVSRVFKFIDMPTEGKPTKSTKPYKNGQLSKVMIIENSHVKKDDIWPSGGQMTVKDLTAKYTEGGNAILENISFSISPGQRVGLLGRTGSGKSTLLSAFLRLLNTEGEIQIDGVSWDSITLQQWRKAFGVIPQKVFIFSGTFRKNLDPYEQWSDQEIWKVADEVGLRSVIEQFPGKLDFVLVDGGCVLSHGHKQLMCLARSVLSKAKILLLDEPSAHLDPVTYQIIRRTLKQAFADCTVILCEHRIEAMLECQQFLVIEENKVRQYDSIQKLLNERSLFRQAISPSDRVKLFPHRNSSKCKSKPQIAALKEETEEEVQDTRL

| SMILES | pEC50 [1] | Maximum % activity (with co-corrector) (with co-corrector) | pEC50 [2] | Emax (without co-corrector) [%] | Maximum % activity (with co-corrector) [3] | pEC50 [4] | Emax [5] [%] | pEC50 [6] |
| --- | --- | --- | --- | --- | --- | --- | --- | --- |
| Cc1ccc(OC2COC2)c(C2(C(=O)NS(=O)(=O)c3cccc4ncccc34)CC2)c1 [Example I-93, 1-{5-methyl-2-[(oxetan-3-yl)oxy]phenyl}-N-(quinoline-5-sulfonyl)cyclopropane-1-carboxamide] | 5.00 to 5.52 | +++ (≥350) | > 5.52 | > 150 | – | – | – | – |
| COCCOc1ncc(C2CCC2)cc1C1(C(=O)NS(=O)(=O)c2cccc3[nH]ccc23)CC1 [Example GI-99, 1-[5-cyclobutyl-2-(2-methoxyethoxy)pyridin-3-yl]-N-(1H-indole-4-sulfonyl)cyclopropane-1-carboxamide] | – | – | – | – | +++ (≥350) | > 5.52 | > 150 | > 5.52 |
| COc1ccc(C(C)(C)C)cc1C1(C(=O)NS(=O)(=O)c2cccc3c2CCCN3)CC1 [Example I-39, 1-(5-tert-butyl-2-methoxyphenyl)-N-(1,2,3,4-tetrahydroquinoline-5-sulfonyl)cyclopropane-1-carboxamide] | > 5.52 | +++ (≥350) | > 5.52 | > 150 | – | – | – | – |
| O=C(NS(=O)(=O)CCCCl)C1(c2ccc(Cl)cc2Cl)CC1 [Example III-108, N-(3-chloropropane-1-sulfonyl)-1-(2,4-dichlorophenyl)cyclopropane-1-carboxamide] | < 5.00 | ++ (≥150 and <350) | 5.00 to 5.52 | < 50 | – | – | – | – |
| COCC1CCN(c2ncc(C3CCC3)cc2C2(C(=O)NS(=O)(=O)c3cccc4ncccc34)CC2)CC1 [Example GI-121, 1-{5-cyclobutyl-2-[4-(methoxymethyl)piperidin-1-yl]pyridin-3-yl}-N-(quinoline-5-sulfonyl)cyclopropane-1-carboxamide] | – | – | – | – | +++ (≥350) | > 5.52 | > 150 | > 5.52 |
| COc1ncc(C(F)(F)F)cc1C1(C(=O)NS(=O)(=O)c2cccc3cnn(C)c23)CC1 [Example III-97, 1-[2-methoxy-5-(trifluoromethyl)pyridin-3-yl]-N-(1-methyl-1H-indazole-7-sulfonyl)cyclopropane-1-carboxamide] | 5.00 to 5.52 | +++ (≥350) | 5.00 to 5.52 | > 150 | – | – | – | – |

The remaining lines, values ahead:

| pEC50 [1] | Maximum % activity (with co-corrector) (with co-corrector) | pEC50 [2] | Emax (without co-corrector) [%] | Maximum % activity (with co-corrector) [3] | pEC50 [4] | Emax [5] [%] | pEC50 [6] | SMILES |
| --- | --- | --- | --- | --- | --- | --- | --- | --- |
| 5.00 to 5.52 | +++ (≥350) | > 5.52 | > 150 | – | – | – | – | COc1ncc(C(F)(F)F)cc1C1(C(=O)NS(=O)(=O)c2cccc3nc(C)ccc23)CC1 [II-9] |
| > 5.52 | +++ (≥350) | > 5.52 | > 150 | – | – | – | – | Cc1ccc(O[C@@H]2CCOC2)c(C2(C(=O)NS(=O)(=O)c3cccc4nc(C)ccc34)CC2)c1 [Example I-123, 1-(5-methyl-2-{[(3R)-oxolan-3-yl]oxy}phenyl)-N-(2-methylquinoline-5-sulfonyl)cyclopropane-1-carboxamide] |
| – | – | – | – | +++ (≥350) | > 5.52 | > 150 | 5.00 to 5.52 | O=C(NS(=O)(=O)c1cccc2ncccc12)C1(c2cc(Cl)cnc2N2CCCC2)CC1 [Example GI-35, 1-[5-chloro-2-(pyrrolidin-1-yl)pyridin-3-yl]-N-(quinoline-5-sulfonyl)cyclopropane-1-carboxamide] |
| – | – | – | – | +++ (≥350) | > 5.52 | > 150 | > 5.52 | Cc1cnc(OCC(C)C)c(C2(C(=O)NS(=O)(=O)c3cccc4nc(C)ccc34)CC2)c1 [Example GI-43, 1-[5-methyl-2-(2-methylpropoxy)pyridin-3-yl]-N-(2-methylquinoline-5-sulfonyl)cyclopropane-1-carboxamide] |
| – | – | – | – | +++ (≥350) | > 5.52 | > 150 | > 5.52 | Cc1ccc2c(S(=O)(=O)NC(=O)C3(c4cc(N5CCCC5)cnc4OCC(C)C)CC3)cccc2n1 [Example GI-69, 1-[2-(2-methylpropoxy)-5-(pyrrolidin-1-yl)pyridin-3-yl]-N-(2-methylquinoline-5-sulfonyl)cyclopropane-1-carboxamide] |
